Source: ChEMBL document CHEMBL3046714, “Synthesis and Precocious Metamorphosis-Inducing Activity of 3-(1-Alkenyl) pyridines” (J Pestic Sci, 2000)

Assays:
[1] = test system: Bombyx mori; test: Precocious metamorphosis-inducing activity in Bombyx mori Shunrei x Shougetsu fourth-instar larvae assessed as change in body weight compound applied topically measured every 12 hr during fourth-instar period; assay type: functional
[2] = test system: Bombyx mori; test: Precocious metamorphosis-inducing activity in Bombyx mori Shunrei x Shougetsu fourth-instar larvae assessed as change in body weight at >160 ug applied topically measured every 12 hr during fourth-instar period; assay type: functional
[3] = test system: Bombyx mori; test: Precocious metamorphosis-inducing activity in Bombyx mori Shunrei x Shougetsu fourth-instar larvae assessed as change in body weight at >80 ug applied topically measured every 12 hr during fourth-instar period; assay type: functional
[4] = Toxicity in Bombyx mori Shunrei x Shougetsu fourth-instar larvae assessed as mortality at 160 ug applied topically; assay type: organism-based; conditions: in vivo, topical or ocular

Row | Structure (SMILES) | ED50 [1] [µg] | Activity [2] [%] | Activity [3] [%] | mortality [4] [%]
1 | CCCC=C(c1ccccc1)c1cccnc1 | 50 | – | – | –
2 | CCOC(=O)C=C(c1ccccc1)c1cccnc1 | 89 | – | – | –
3 | CC(=Cc1ccccc1)c1cccnc1 | 42 | – | – | –
4 | CC(C)CC=C(c1ccccc1)c1cccnc1 | 34 | – | – | –
5 | CC=Cc1cccnc1 | >160 | 0 | – | –
6 | CCOC(=O)/C=C(\C)c1cccnc1 | >160 | 5 | – | –
7 | C(=C/c1cccnc1)/c1ccccc1 | >80 | – | 7 | 100
8 | CCOC(=O)/C=C/c1cccnc1 | >160 | 0 | – | –
9 | C=C(c1ccccc1)c1cccnc1 | 56 | – | – | –
10 | CCC=C(c1ccccc1)c1cccnc1 | 29 | – | – | –
11 | CCOC(=O)/C=C(/C)c1cccnc1 | >160 | 0 | – | –
12 | CC=C(C)c1cccnc1 | >160 | 20 | – | –
13 | C(=C\c1cccnc1)/c1ccccc1 | >160 | 9 | – | –
14 | CCC(c1ccccc1)c1cccnc1 (racemic) | 42 | – | – | –
15 | CC=C(c1ccccc1)c1cccnc1 | 26 | – | – | –
16 | C(=C(c1ccccc1)c1cccnc1)c1ccccc1 | 144 | – | – | –
17 | CC(C)C=C(c1ccccc1)c1cccnc1 | 27 | – | – | –
18 | CCCCCC=C(c1ccccc1)c1cccnc1 | >160 | 35 | – | –
19 | CCCCC=C(c1ccccc1)c1cccnc1 | 102 | – | – | –
